Reference: ChEMBL document CHEMBL1201862, “PubChem BioAssay data set” (2004)
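Method: 48-hour compound exposure of cells in 96-well plates, five concentrations, linear interpolation of endpoints. At the GI50, growth is halved.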 The source made the active and inactive calls. Cut-off read from the data, not from the text of the source: active = GI50 up to about 1.1 µM and inactive = higher.

What was measured:
Assay in all cases: NCI tumour cell line growth inhibition, 48 h
NCI-H23 = system: NCI-H23
MOLT-4 = system: MOLT-4
UACC-257 = system: UACC-257
IGROV-1 = system: IGROV-1
OVCAR-3 = system: OVCAR-3
SK-OV-3 = system: SK-OV-3
M14 = system: M14
HOP-62 = system: HOP-62
NCI-H522 = system: NCI-H522
HT-29 = system: HT-29
HCT-15 = system: HCT-15
NCI-H460 = system: NCI-H460
ACHN = system: ACHN
HCC 2998 = system: HCC 2998
SR = system: SR
SF-268 = system: SF-268
SK-MEL-28 = system: SK-MEL-28
NCI/ADR-RES = system: NCI/ADR-RES
OVCAR-5 = system: OVCAR-5
SN12C = system: SN12C
TK-10 = system: TK-10
LOX IMVI = system: LOX IMVI
U-251 = system: U-251
UACC-62 = system: UACC-62
MDA-N = system: MDA-N
HCT-116 = system: HCT-116
K562 = system: K562
UO-31 = system: UO-31
SW-620 = system: SW-620
MDA-MB-231 = system: MDA-MB-231
DU-145 = system: DU-145
MCF7 = system: MCF7
SF-539 = system: SF-539
COLO 205 = system: COLO 205
RPMI-8226 = system: RPMI-8226
786-0 = system: 786-0
PC-3 = system: PC-3
OVCAR-8 = system: OVCAR-8
T47D = system: T47D
Hs-578T = system: Hs-578T
Malme-3M = system: Malme-3M
SK-MEL-5 = system: SK-MEL-5
BT-549 = system: BT-549
KM12 = system: KM12
A549 = system: A549
SK-MEL-2 = system: SK-MEL-2
SNB-19 = system: SNB-19
SNB-75 = system: SNB-75
MDA-MB-435 = system: MDA-MB-435
EKVX = system: EKVX
OVCAR-4 = system: OVCAR-4
CCRF-CEM = system: CCRF-CEM
A498 = system: A498
NCI-H226 = system: NCI-H226
CAKI-1 = system: CAKI-1
RXF 393 = system: RXF 393
HOP-92 = system: HOP-92
SF-295 = system: SF-295
HL-60 = system: HL-60

Compound: Cc1c2c(n(CCc3ccccc3)c1C)NN=C(C#N)S2(=O)=O
- GI50 (NCI-H23): > 100 µM (inactive)
- GI50 (MOLT-4): > 100 µM (inactive)
- GI50 (UACC-257): > 100 µM (inactive)
- GI50 (IGROV-1): > 100 µM (inactive)
- GI50 (OVCAR-3): > 100 µM (inactive)
- GI50 (SK-OV-3): > 100 µM (inactive)
- GI50 (M14): > 100 µM (inactive)
- GI50 (HOP-62): > 100 µM (inactive)
- GI50 (NCI-H522): 71.1 µM (inactive)
- GI50 (HT-29): > 100 µM (inactive)
- GI50 (HCT-15): > 100 µM
- GI50 (NCI-H460): > 100 µM (inactive)
- GI50 (ACHN): > 100 µM (inactive)
- GI50 (HCC 2998): > 100 µM (inactive)
- GI50 (SR): 6.53 µM (inactive)
- GI50 (SF-268): > 100 µM (inactive)
- GI50 (SK-MEL-28): > 100 µM (inactive)
- GI50 (NCI/ADR-RES): > 100 µM (inactive)
- GI50 (OVCAR-5): > 100 µM (inactive)
- GI50 (SN12C): > 100 µM (inactive)
- GI50 (TK-10): > 100 µM (inactive)
- GI50 (LOX IMVI): > 100 µM (inactive)
- GI50 (U-251): > 100 µM (inactive)
- GI50 (UACC-62): > 100 µM (inactive)
- GI50 (MDA-N): > 100 µM (inactive)
- GI50 (HCT-116): > 100 µM (inactive)
- GI50 (K562): > 100 µM (inactive)
- GI50 (UO-31): > 100 µM (inactive)
- GI50 (SW-620): > 100 µM (inactive)
- GI50 (MDA-MB-231): > 100 µM (inactive)
- GI50 (DU-145): > 100 µM (inactive)
- GI50 (MCF7): > 100 µM (inactive)
- GI50 (SF-539): > 100 µM (inactive)
- GI50 (COLO 205): > 100 µM (inactive)
- GI50 (RPMI-8226): > 100 µM (inactive)
- GI50 (786-0): > 100 µM (inactive)
- GI50 (PC-3): > 100 µM (inactive)
- GI50 (OVCAR-8): > 100 µM (inactive)
- GI50 (T47D): > 100 µM (inactive)
- GI50 (Hs-578T): > 100 µM (inactive)
- GI50 (Malme-3M): > 100 µM (inactive)
- GI50 (SK-MEL-5): > 100 µM (inactive)
- GI50 (BT-549): > 100 µM (inactive)
- GI50 (KM12): > 100 µM (inactive)
- GI50 (A549): > 100 µM (inactive)
- GI50 (SK-MEL-2): > 100 µM (inactive)
- GI50 (SNB-19): > 100 µM (inactive)
- GI50 (SNB-75): > 100 µM (inactive)
- GI50 (MDA-MB-435): > 100 µM (inactive)
- GI50 (EKVX): > 100 µM (inactive)
- GI50 (OVCAR-4): > 100 µM (inactive)

Compound: COc1cc(/C=C2\CC3C4CC=C5C[C@@H](O)CC[C@]5(C)C4CC[C@]3(C)\C2=N\O)cc(OC)c1OC (some centres undefined)
- GI50 (NCI-H23): 7.16 µM (inactive)
- GI50 (MOLT-4): 29.2 µM (inactive)
- GI50 (UACC-257): 9.91 µM (inactive)
- GI50 (IGROV-1): 13 µM (inactive)
- GI50 (OVCAR-3): 7.29 µM (inactive)
- GI50 (CCRF-CEM): 6.44 µM (inactive)
- GI50 (SK-OV-3): 23.7 µM (inactive)
- GI50 (M14): 10.5 µM (inactive)
- GI50 (HOP-62): 19.6 µM (inactive)
- GI50 (NCI-H522): 4.93 µM (inactive)
- GI50 (A498): 6.93 µM (inactive)
- GI50 (HT-29): 5.51 µM (inactive)
- GI50 (HCT-15): 3.88 µM
- GI50 (NCI-H460): 4.99 µM (inactive)
- GI50 (ACHN): 3.2 µM (inactive)
- GI50 (HCC 2998): 6.34 µM (inactive)
- GI50 (SF-268): 8.02 µM (inactive)
- GI50 (SK-MEL-28): 14.2 µM (inactive)
- GI50 (NCI/ADR-RES): 7.6 µM (inactive)
- GI50 (OVCAR-5): 10.3 µM (inactive)
- GI50 (SN12C): 7.13 µM (inactive)
- GI50 (TK-10): 7.53 µM (inactive)
- GI50 (LOX IMVI): 5.48 µM (inactive)
- GI50 (U-251): 6.28 µM (inactive)
- GI50 (NCI-H226): 7.96 µM (inactive)
- GI50 (UACC-62): 9.06 µM (inactive)
- GI50 (MDA-N): 6.37 µM (inactive)
- GI50 (HCT-116): 4.05 µM (inactive)
- GI50 (K562): 34.4 µM (inactive)
- GI50 (UO-31): 2.28 µM (inactive)
- GI50 (CAKI-1): 3.94 µM (inactive)
- GI50 (SW-620): 16.7 µM (inactive)
- GI50 (MDA-MB-231): 7.31 µM (inactive)
- GI50 (DU-145): 12.9 µM (inactive)
- GI50 (MCF7): 3.21 µM (inactive)
- GI50 (SF-539): 6.25 µM (inactive)
- GI50 (COLO 205): 3.73 µM (inactive)
- GI50 (RPMI-8226): 10.4 µM (inactive)
- GI50 (786-0): 4.66 µM (inactive)
- GI50 (PC-3): 4.28 µM (inactive)
- GI50 (OVCAR-8): 8.45 µM (inactive)
- GI50 (T47D): 2.72 µM (inactive)
- GI50 (RXF 393): 3.61 µM (inactive)
- GI50 (Hs-578T): 4.42 µM (inactive)
- GI50 (Malme-3M): 9.35 µM (inactive)
- GI50 (HOP-92): 14.3 µM (inactive)
- GI50 (SK-MEL-5): 4.4 µM (inactive)
- GI50 (BT-549): 7 µM (inactive)
- GI50 (KM12): 2.54 µM (inactive)
- GI50 (A549): 4.65 µM (inactive)
- GI50 (SK-MEL-2): 4.07 µM (inactive)
- GI50 (SF-295): 3.02 µM (inactive)
- GI50 (SNB-19): 21.3 µM (inactive)
- GI50 (SNB-75): 9.2 µM (inactive)
- GI50 (MDA-MB-435): 5.12 µM (inactive)
- GI50 (EKVX): 6.04 µM (inactive)
- GI50 (OVCAR-4): 3.94 µM (inactive)
- GI50 (HL-60): 4.61 µM (inactive)
